# Assay results from patent US20110189174A1, “COMPOSITIONS AND METHODS FOR TREATING, REDUCING, AMELIORATING, ALLEVIATING, OR INHIBITING PROGRESSION OF, PATHOGENIC OCULAR NEOVASCULARIZATION” (priority 2010, published 2011).
# Experiments:
# [1] = tested on: human retinal endothelial cells (HREC); experiment: PMA-induced HREC network formation in fibrin gel; type: cell-based; conditions: PMA 25 ng/mL, vs PMA control
# Protocol: Prior to the start of the experiment, HREC from Cell Systems were cultured in flask in CS-C complete medium. The tube formation assay was performed in a 96-well plate pre-coated with fibrin gel. HREC were collected from flasks and re-suspended 1% FBS EBM-2 medium. Cells were pre-incubated with the integrin antagonists, echistatin or vehicle control for 30 min before loading onto the fibrin gel. Images were taken at 9 h.
# Thrombin solution and fibrinogen solutions were allowed to thaw at room temperature and 37° C. water bath, respectively. Fibrinogen solution at 30 μL was added into the desired number of wells in a 96-well plate. Plate was gently shaken to ensure uniform coverage of fibrinogen solution in the well. Thrombin at 20 μL was added into each well. The plate was gently shaken immediately to ensure the thrombin was mixed well with fibrinogen. The plate was placed at 37° C. overnight to allow the fibrin gel to polymerize.
# HREC were trypsinized at about 80% confluence and counted by standard hemocytometer methods. After deactivating trypsin with 5 mL of 10% FBS EBM-2 medium, the cells were centrifuged (800 rpm, 8 min) and re-suspended at 2×10^5 cells/mL in 1% FBS EBM-2 medium
# Cells were pre-incubated with integrin compounds or echistatin at 37° C., 5% CO2, and 95% humidity for 30 minutes before mixing with PMA medium. The final concentrations of all agents are shown in the design table. The 100 μL of the cell mixture was added onto the gel and cells were cultured at 37° C., 5% CO2, and 95% humidity. Images were taken at different time points.
# The network formation scoring system (a five point-scale)
# Each well in one group was given a score and then averaged. Data were expressed as mean±SEM of network formation scores. Statistical analysis was performed using a one-way ANOVA-Dunnett's test in raw data, and p<0.05 was considered statistically significant. Data analysis was performed using statistical analysis software JMP (SAS Institute, Cary, N.C.).
# [2] = Intraocular pressure (Tono-pen) in monkeys after intravitreal injection; type: in vivo, cynomolgus monkeys (Macaca fascicularis)
# Protocol: Once the phase Ib study was completed, and it was established that the drug suspension in oil would not interfere with either laser administration, evaluation of CNV or cause adverse effects, phase II was initiated. On days 1, and 15 both eyes of monkeys received 50 μL of Lucentis (0.5 mg/eye), vehicle (0 mg/eye), BOL-303050-X (1.5 mg/eye), BOL-303054-X (1.5 mg/eye) or BOL-303055-X (1.5 mg/eye) (Table 2). Intravitreous injection was performed for each by eye aiming towards mid-vitreous body. Dosing in the right eye was alternated for successive doses (as applicable) at approximately the 11 o'clock and 10 o'clock positions. Dosing in the left eye was alternated for successive doses (as applicable) from approximately the 1 o'clock and 2 o'clock positions.
# IOP was done in conjunction with the OE using a Tono-pen on anesthetized monkeys on days 1, 3, 7, 15, and 31 of dosing Phase II and on the day of scheduled sacrifice (day 38).
# Grade IV lesions were analyzed using either Fisher's exact probability test (2-Tail) or Chi square test (χ2). For the analysis of delta changes in TOP a two-way ANOVA with repeated measures followed by the contrast procedure was performed on Box-Cox transformed data if needed. Unless indicated otherwise, data are presented as means±SEM unless stated otherwise. P<0.05 was considered statistically significant.
# [3] = tested on: human retinal endothelial cells (HREC); experiment: Testing 6: VEGF-induced HREC proliferation (MTS assay), BOL-303055-X and Avastin alone and in combination; type: cell-based; conditions: for Inhibition of VEGF-induced HREC proliferation, agent alone: Avastin 3-300 ng/ml (significant from 30 ng/ml)
# Protocol: HREC were first cultured overnight in a 96-well plate coated with fibronectin. The next day, cells were serum-starved for 2 hours. The medium containing different agents as shown in Table 12 was pre-incubated for 1 hour before being added into appropriate wells. The cells were further cultured at 37° C., 5% CO2, and 95% humidity for another 3 days. After that, cell proliferation was estimated by the MTS assay—a cell metabolic activity assay (disclosed hereinabove).
# A 96-well plate was coated with human fibronectin (10 μg/ml) for 5 h at 37° C., 5% CO2, and 95% humidity. HREC were collected from flasks by EDTA-trypsin treatment and re-suspended in 10% FBS CS-C medium at 18,000 cells/ml. Cells (200 μl/well) were added to the plate and cultured for overnight at 37° C., 5% CO2, and 95% humidity. Next day, medium was aspirated and serum-free medium was added to wells at 200 μl/well for 2 hours.
# Normal IgG was also added in such a way that all groups contained the same amount of IgG protein. All medium solutions were incubated for 1 h at 37° C., 5% CO2, and 95% humidity. After carefully aspirating the medium from cells, 200 μl of the medium containing different agents was added into appropriate wells. The cells were further cultured for 3 days.
# At the end of incubation, the medium was carefully aspirated from cells and 120 μl of MTS working solution was added into all wells. The plate was incubated at 37° C., 5% CO2, and 95% humidity for 1 hour and then read by a plate reader at 490 nm wavelength.
# Median optical density (OD) was generated from different groups. Data were expressed as mean±SEM of the OD values. Statistical analysis was performed using a three-way ANOVA followed by the contrast procedure on log-transformed data, and P<0.05 was considered statistically significant. […] All the data from the individual wells were fitted to a re-parameterized four-parameter logistic equation to obtain IC50 using similar methodology as that previously described and utilizing the statistical analysis software JMP (SAS Institute, Cary, N.C.).
# [4] = rat, in vivo
# Protocol: The anterior segment of the eye was examined using a slit-lamp biomicroscopy for excluding any animals with abnormalities that might interfere with the study. Fundus photography and fluorescein angiography (FA) were performed to document the health of the retina and the ocular circulation using a TRC 50EX fundus camera (Topcon). For FA, 10% sodium fluorescein was injected intravenously (50 mg/kg of body weight) through the tail vein or the vein under the incisor before the procedure.
# Immediately after placement of laser photocoagulation, the experimental eyes received an intravitreal injection of either a compound or a vehicle as described in Table 5. Following the disinfection of ocular surface with 5% betadine and 0.9% saline solutions, the injections were performed with aid of a surgical microscope using 0.3 mL syringes with a 31-gauge ½-inch long needle (Ultra-Fine II™ Insulin syringe, BD, Franklin Lakes, N.J.).
# Two weeks after photocoagulation, all rats were examined under anesthesia and pupil dilation with slit-lamp biomicroscopy, fundus photography and FA as described in the baseline examination.
# [5] = BOL-303055-X 1 nM, VEGF 10 ng/ml
compound,measurement,setting,value
COc1ccc(S(=O)(=O)N[C@@H](CNc2nc(C)nc(N3CCC(c4ccc5c(n4)NCCC5)CC3)c2C)C(=O)O)cc1 [BOL-303050-X],Inhibition of PMA-induced HREC network formation in fibrin gel,[1]; 1 nM,significantly inhibited
same,Inhibition of PMA-induced HREC network formation in fibrin gel,[1]; 10 nM,significantly inhibited
same,Reduction of IOP versus baseline,"[2]; day 38 only, 1.5 mg/eye intravitreal days 1 and 15",4 mm Hg
COc1c(NC[C@H](NC(=O)OCc2ccccc2)C(=O)O)ncnc1N1CCC(c2ccc3c(n2)NCCC3)CC1 [BOL-303054-X],Inhibition of PMA-induced HREC network formation in fibrin gel,[1]; 1 nM,not statistically significant
same,Inhibition of PMA-induced HREC network formation in fibrin gel,[1]; 10 nM,not statistically significant
CCc1nc(NC[C@H](NC(=O)OCc2ccccc2)C(=O)O)c(C)c(N2CCC(c3ccc4c(n3)NCCC4)CC2)n1 [BOL-303055-X],Inhibition of PMA-induced HREC network formation in fibrin gel,[1]; 10 nM,significantly inhibited
same,HREC proliferation under basal conditions,"[3]; 1 nM, no VEGF",significantly inhibited
same,Enhancement of Avastin potency,[3]; BOL-303055-X 1 nM,approximately 3.8 fold
same,"Inhibition of VEGF-induced HREC proliferation, agent alone",[3]; [5],reduced VEGF-induced proliferation in a statistically significant manner
same,Combination effect with Avastin on VEGF-induced HREC proliferation (synergistic/additive),"[3]; BOL-303055-X 1 nM, Avastin 10 to 100 ng/ml",synergistic effects
same,IOP change compared with baseline,"[2]; right eyes day 15, left eyes days 3 and 15",reduced IOP
same,Increase in IOP compared to baseline,"[2]; right eyes, day 31, 1.5 mg/eye intravitreal days 1 and 15",4 mm Hg
"bevacizumab [Avastin, reference compound]",Intraocular inflammation and retinal vascular congestion,[4],no intraocular inflammation and retinal vascular congestion was recorded
same,"Inhibition of VEGF-induced HREC proliferation, agent alone",[3]; [5],dose-dependent inhibition
same,IC50 ± SE of Avastin plus BOL-303055-X on inhibiting VEGF-induced proliferation of HREC,"[3]; VEGF 10 ng/ml, BOL-303055-X 1 nM, estimated",0.016 µg/mL
